# Source: patent US11524080B2 (priority 2018, dated 2022)
# Like-named read-outs stand apart in the source and are kept apart here.
# Experiments:
# [1] = mouse, in vivo, 50 mg/kg
# [2] = mouse, in vivo
# [3] = mouse, in vivo, po
# in vivo = settings: female, Balb/c, mouse
# F. tularensis SCHU-S4 [4] = experiment: microbe, parasite or virus in culture; assay type: cell-based; settings: Francisella tularensis, SCHUS4
# F. tularensis SCHU-S4 [5] = experiment: microbe, parasite or virus in culture; assay type: cell-based; settings: Francisella tularensis, SCHUS4; remark: listed apart in the source
# B. pseudomallei K96243 = experiment: microbe, parasite or virus in culture; assay type: cell-based; settings: Burkholderia pseudomallei
smiles,measurement,setting,value
"C[C@H]1COc2c(N3CCN(C)CC3)c(F)cc3c(=O)c(C(=O)O)cn1c23 [Free levofloxacin, levofloxacin]",AUC,[1]; ip,122.1861 µg/mL/h
same,Tmax,[1]; ip,18 min
same,AUC,[1]; po,119.6124 µg/mL/h
same,Tmax,[1]; po,36 min
same,Effect on body weight,[2],minimal
same,Mean weight gain on Day 36,[3],3.2%
same,Mean weight loss of starting weight by Day 8,[3],3.3%
same,Cmax,"in vivo; ip, 50 mg/kg",50200 ng/mL
same,Cmax,"in vivo; ip, 100 mg/kg",2100 ng/mL
same,Cmax,"in vivo; po, 50 mg/kg",46100 ng/mL
"C[C@H]1c2cccc(O)c2C(=O)C2=C(O)[C@]3(O)C(=O)C(C(N)=O)=C(O)[C@@H](N(C)C)[C@@H]3[C@@H](O)[C@@H]21 [Free doxycycline, doxycycline hyclate]",MIC,F. tularensis SCHU-S4 [4],0.5 µg/mL
same,MBC,F. tularensis SCHU-S4 [5],> 64 µg/mL
same,Effect on body weight,[2],strong indication for doxycycline-based weight loss
same,Necropsy findings,[2]; ip,"peritoneal adhesions involving spleen, pancreas, intestines and kidney"
same,Necropsy findings,[2]; po,two mice had slightly rounded edges to the lobes of the liver
same,Mean weight gain on Day 36,[3],1.7%
same,Mean weight loss of starting weight by Day 8,[3],5.2%
"O=C(O)c1cn(C2CC2)c2cc(N3CCNCC3)c(F)cc2c1=O [Free ciprofloxacin, ciprofloxacin]",MBC,B. pseudomallei K96243,16 µg/mL
same,Effect on body weight,[2],significantly induced weight loss
same,Mean weight gain on Day 36,[3],2.4%
same,Mean weight loss of starting weight by Day 8,[3],4.4%
